In patent US11802107B2, “Compounds and methods of use” (Signum Biosciences, Inc., priority 2017, dated 2023):

Legend:
IL-5 = experiment: T-cell receptor (anti-CD3/CD28)-induced IL-5 on PBMCs; type: cell-based; details: Homo sapiens, PBMC, anti-CD3/CD28 beads, 24 hours, ELISA, read-out: TCR-PBMCs IL-5 Protein IC50
Method: (§1) Cryopreserved human Peripheral Blood Mononuclear cells (PBMCs) from healthy adult donors were obtained from Zen Bio, Inc (Cat No. SER-PBMC-F). Cells were cultured in 96-well plates with lymphocyte media (Cat No. LYMPH-1) and were pre-treated with test materials (≤100 μM) for 2 hours and later co-treated with test materials and anti-CD3/CD28 beads (Thermo-Fisher; Cat No. 11131D) at 1:0.4 PBMC:bead ratio for 24 hours at 37° C. and 5% CO2. After incubation, cell media supernatants were harvested and used to measure cytokine levels (IL-4, IL-5, IL-10) using ELISA kits (BD Biosciences® #555194, #555157; R&D Systems® #DY317). Results were represented as percent of inhibition relative to untreated and anti-CD3/CD28 beads-only treated cells. IC50 values were determined by non-linear regression analysis using the four-parameter logistic equation.

Balb/C mice = experiment: Oxazolone-induced delayed-type hypersensitivity (DTH) in vivo model
Method: Inbred male Balb/C mice were purchased from Hilltop Lab Animals (Scottdale, PA) and were used between 8 and 10 weeks of age. Mice backs were shaved and 100 μl of 3% v/v Oxazolone (Sigma Aldrich, Cat No. E0753) in acetone/olive oil (4:1) was applied to dorsal skin for sensitization. On Day 7, ears were challenged with 0.5% v/v Oxazolone and 30 minutes after challenge, test materials at 3% w/v were applied to ears (10 μl applied both to the dorsal and ventral surfaces of the mouse ear using a solvent pipette) and 24 hours later, skin thickness (edema) was measured. A 6-mm punch biopsy was obtained from each ear, snap frozen in liquid nitrogen. Ear skin biopsy punches were pulverized using FastPrep®-24 Biopulverizer (MP Biomedical, CatNo. 116004500) and Lysing Matrix A tubes (CatNo. 16910050). Protein extracts were obtained using 500 μL/tissue of cold T-PER buffer (ThermoFisher, CatNo. 78510) with Protease inhibitors (Sigma-Aldich, CatNo. 58820-20TAB). Soluble protein fractions were used to measure cytokine levels (IL-4) using ELISA kit (BD Biosciences® #555232). Results were represented as percent of inhibition relative to unsensitized and sensitized-only treated animals. Vehicle for presently disclosed compounds was 60:40 H2O:EtOH and 1:1 Acetone:EtOH for AN2718. (n=5-15 animals per treatment group).
Compound C was further analyzed at various dosages against 0.4 mg/ear of […] by the above protocol, data representing the average±S.E. of cumulative data from three independent experiments (n=12-15 mice per group) is shown below: […]

LPS-induced cytokines = LPS-induced cytokines on PBMCs; type: cell-based, human; details: LPS instead of anti-CD3/CD28 beads
Method: as §1
By a similar method, but instead of anti-CD3/CD28 beads (Thermo-Fisher; Cat No. 11131D), compounds A, C, T and E were treated with LPS (Sigma Aldrich, Cat. No. LF4321) to measure inhibition of LPS-induced cytokines, and compounds C and T were treated with PHA-L (Sigma Aldrich, Cat No. 11249738001) to measure inhibition of PHA-induced cytokines.

IL-17 = experiment: P. acnes-induced IL-17 protein on human PBMCs (ELISA); type: cell-based; details: PBMC, PBMCs + live P. acnes 1:1, test material 30 PM, 24 hours
Method: (§2) Cryopreserved human Peripheral Blood Mononuclear cells (PBMCs) from healthy adult donors were obtained from Zen Bio, Inc (Cat No. SER-PBMC-F). Cells were cultured in 12-well plates with lymphocyte media (Cat No. LYMPH-1) and incubated with test materials ([…]) and live P. acnes (ATCC® 6919TM) at 1:1 PBMC: P. acnes bacteria ratio for 24 hours at 37° C. and 5% CO2. After incubation, cell media supernatants were harvested and used to measure pro-inflammatory cytokine levels (IL-8, TNF-α, IL-1b, IL-17) using ELISA kits (BD Biosciences® #557966, #555212, #555244; R&D Systems® #DY317). Total RNA was extracted from cells using the RNAqueous® kit (Ambion®; Cat No. 1912) and cDNA was obtained using the High Capacity RNA-to-cDNA kit (Applied Biosystems®; Cat No. 4387406). Quantitative PCR (qPCR) was performed using the TaqMan® Fast Advanced Master Mix (Applied Biosystems®; Cat No. 4444556) and specific TaqMan®-probes human gene primers CXCL8 (IL-8), IL1B (IL-1b), TNF (TNF-α), IL17A (IL-17A) and GAPDH to calculate the relative gene fold expression change per treatment. Gene expression analysis was performed using the comparative Ct method (also known as the 2-[delta][delta]Ct) approach by comparing the Ct values of P. acnes-only treated cells with the untreated samples and normalized to GAPDH gene expression as endogenous housekeeping gene.

IL17A (IL-17A) = experiment: P. acnes-induced IL-17 gene on human PBMCs (qPCR); type: cell-based; details: PBMC, PBMCs + live P. acnes 1:1, test material 30 PM, 24 hours
Method: as §2

Swiss Webster (ICR) mice = experiment: TPA-induced skin irritation in vivo model (mouse ear); details: 24 hour
Method: Outbred male Swiss Webster (ICR) mice were purchased from Hilltop Lab Animals (Scottdale, PA) and were used between 10 and 12 weeks of age and we followed a similar protocol previously described (Gordon et al., 2008). Mice received 1.2 μg/20 μl TPA dissolved in acetone (10 μl applied both to the dorsal and ventral surfaces of the mouse ear using a solvent pipette) to each ear to induce acute irritation (6 per group). Test Materials were co-treated with TPA or applied 5 minutes after TPA dose, at various concentrations (0.6 to 800 μg/20 μl) in ethanol. After 24 hour treatment, edema was measured by ear thickness.

[1] = Mus musculus, topical to ears @ 3% w/v, 24 hours, read-out: Edema % inhibition
[2] = topical @ 1% w/v, ear thickness
[3] = topical to ears @ 3% w/v, 24 hours, ear biopsy ELISA

Structure (SMILES)	IC50 (IL-5) [µM]	inhibition in vivo at 3 % strength (Balb/C mice; [1]) [%]	Edema (% inhibition) (Balb/C mice; dose 0.6 Mg/ear, average±S.E.) [%]	Edema (% inhibition) (Balb/C mice; dose 1 Mg/ear, average±S.E.) [%]	inhibition of LPS-induced cytokines (LPS-induced cytokines)	inhibition at 30 pM (IL-17) [%]	inhibition at 30 pM (IL17A (IL-17A)) [%]	Edema (% inhibition) (Swiss Webster (ICR) mice; [2]) [%]	Edema (% inhibition) (Balb/C mice; dose 0.2 Mg/ear, average±S.E.) [%]	MPO (% inhibition) (Balb/C mice; dose 0.2 Mg/ear, average±S.E.) [%]	MPO (% inhibition) (Balb/C mice; dose 0.6 Mg/ear, average±S.E.) [%]	MPO (% inhibition) (Balb/C mice; dose 1 Mg/ear, average±S.E.) [%]	IL-4 (% inhibition) (Balb/C mice; [3]) [%]	MPO (% inhibition) (Swiss Webster (ICR) mice; topical @ 1% w/v) [%]	also measured
C/C(=C\CSC[C@H](NC(=O)N1CCC[C@H]1C(=O)O)C(=O)O)CCCC(C)CCCC(C)CCCC(C)C (some centres unmarked) [Compound E]	63	51	22	51 ± 9	did not show significant inhibition	23	0								
C/C(=C\CSCC(NC(=O)NCC(=O)O)C(=O)O)CCCC(C)CCCC(C)CCCC(C)C (centres unmarked) [A]	55	44			did not show significant inhibition	32		50							
C/C(=C\CSC[C@H](NC(=O)COCC(=O)O)C(=O)O)CCCC(C)CCCC(C)CCCC(C)C (some centres unmarked) [Compound T]	9	31	31 ± 6	53 ± 8	did not show significant inhibition		0	61	20 ± 4	30 ± 14	41 ± 18	71 ± 3	53	83	
N#Cc1ccc(Oc2ccc3c(c2)COB3O)cc1 [AN2728, reference compound]	1														inhibition in vivo at 2 % (Balb/C mice; Mus musculus, topical @2%, 24 hours, read-out: Edema % inhibition): 0%; Edema (% inhibition) (Balb/C mice; dose 0.4 Mg/ear, average±S.E.): 17 ± 5%; IL-4 (% inhibition) (Balb/C mice; dose 0.4 Mg/ear, average±S.E.): 76 ± 9%; MPO (% inhibition) (Balb/C mice; dose 0.4 Mg/ear, average±S.E.): 36 ± 12%; IL-4 (% inhibition) (Balb/C mice; topical @2%, 24 hours): 76 (@2%); Edema (% inhibition) (Swiss Webster (ICR) mice; topical, AN2728 at 2%): 43%
C/C(=C\CSC[C@H](NC(=O)N(C)CC(=O)O)C(=O)O)CCCC(C)CCCC(C)CCCC(C)C (stereo partly drawn) [Compound C, (2R)-2-{[(carboxymethyl)(methyl)carbamoyl]amino}-3-{[(2E)-3,7,11,15-tetramethylhexadec-2-en-1-yl]sulfanyl}propanoic acid]	46	53	53 ± 5	72 ± 4	did not show significant inhibition	0	0	64	23 ± 4	22 ± 9	67 ± 23	81 ± 5	41	88	IL-4 (% inhibition) (Balb/C mice; dose 0.2 Mg/ear, average±S.E.): 33 ± 9%; IL-4 (% inhibition) (Balb/C mice; dose 0.6 Mg/ear, average±S.E.): 41 ± 10%; IL-4 (% inhibition) (Balb/C mice; dose 1 Mg/ear, average±S.E.): 62 ± 11%
C/C(=C\CSCC(NC(=O)N(CC(=O)O)CC(=O)O)C(=O)O)CCCC(C)CCCC(C)CCCC(C)C (centres unmarked) [Compound G]		41	41			29	0								
